Columns and labels:
Format in all cases: physicochemical
[1] = Observation of particle shape by scanning electron microscopy; settings: SEM micrograph
Excerpt: Micrographs of particles of the anhydrous crystal of the present invention and the monohydrous crystal were taken using scanning electron microscopy (SEM) (Hitachi, Ltd., S-3200N).

[2] = BET specific surface area by nitrogen adsorption method; settings: BET multipoint method, nitrogen gas
Experimental: The specific surface area was measured by a nitrogen adsorption method using Flow sorb II 2300 (Shimadzu Corporation). Specifically, the BET specific surface area was measured by a BET multipoint method by nitrogen adsorption under the following conditions: • Sample amount: 0.2 g • Deaeration condition: 150° C. (anhydrous), 80° C. (monohydrous) • Adsorption gas: nitrogen gas

[3] = Angle of repose (Japanese Pharmacopoeia); settings: compared with the monohydrous crystal
Experimental: Regarding the particles of the anhydrous crystal obtained in Production Example 1 and the monohydrous crystal, the angle of repose was measured in accordance with Angle of repose mentioned in the Japanese Pharmacopoeia, Seventeenth Edition.

[4] = Measurement of solubility in distilled water (HPLC); settings: room temperature, shaken 1 hour, saturated solution
Experimental: After 10 mL of distilled water was put into 0.5 g of the anhydrous crystal obtained in Production Example 1 or the monohydrous crystal as a raw material, the solution was horizontally shaken with a shaker (manufactured by TAITEC CORPORATION, STRONG SHAKER SR-2DS) at room temperature and at a shaking speed of 150 strokes/min and a shaking width of 4 cm/stroke for 1 hour. Thereafter, a precipitate was confirmed to be remained, and centrifugation (3,000 rpm×10 minutes) was performed to take a supernatant, followed by filtration using a membrane filter to obtain a supernatant of a saturated solution. 2 mL of the supernatant of the saturated solution was weighed in a 20 mL volumetric flask to make a constant volume with a mobile phase, and this was used as a sample solution, followed by measurement of solubility under the following HPLC conditions: • Analyzer: HPLC ACQUITY Arc system (manufactured by Waters K. K.) • Mobile phase: acetonitrile/water/acetic acid=50/49.5/0.5, v/v • Detector: ultraviolet spectrophotometer λ=276 nm (1 Au/V) • Column: Nucleosil 5 C18 (4.6 φ×250 mm) (manufactured by MACHEREY-NAGEL GmbH & Co. KG) • Column temperature: 50° C. • Flow rate: 1.075 ml/min • Injection volume: 20 μL • Measurement time: 40 minutes

[5] = Tapped density and bulk density, powder tester (Japanese Pharmacopoeia Method 3); settings: 100 mL cylindrical container; for Tapped density: 100 times per 3 minutes
Experimental: Regarding the anhydrous crystal obtained in Production Example 1 and the monohydrous crystal as a raw material, the bulk density and the tapped density were measured with a powder tester type A.B.D-72 (TSUTSUI SCIENTIFIC INSTRUMENTS Co., Ltd.) in accordance with of Method 3 (measuring vessel) of Determination of Bulk Density and Method 3 of Determination of Tapped Density mentioned in the Japanese Pharmacopoeia, Seventeenth Edition. Specifically, regarding the bulk density, an excess of a sample was freely fallen through the apparatus into a cylindrical container (volume of 100 mL, inner diameter of 5.05 cm) until a container overflowed. Then, the edge of a spatula standing vertically in contact with the top surface of the container was moved smoothly, and an excess of the sample was carefully slashed off from the top surface of the container. The bulk density was calculated by dividing the mass (g) of the sample in the container by a volume of 100 mL. The tapped density was, specifically, measured as a density when the sample was filled in a cylindrical container (volume of 100 mL, inner diameter of 5.05 cm) in the same manner as for the bulk density measurement and was fallen using the apparatus at a rate of 100 times per 3 minutes.

[6] = Long diameter, short diameter and aspect ratio by particle shape image analyzer PITA-3; settings: for Aspect ratio (d50): long diameter (d50)/short diameter (d50)
Experimental: Regarding the anhydrous crystal obtained in Production Example 1 and the monohydrous crystal as a raw material, the long diameter and the short diameter were measured using a particle shape image analyzer PITA-3 (SEISHIN ENTERPRISE Co., Ltd.), and the aspect ratio was calculated.
The longest diameter in the particle was regarded as the long diameter, and the shortest diameter in the particle was regarded as the short diameter. The aspect ratio was calculated by the following formula: Aspect ratio=long diameter/short diameter
Specifically, measurement was performed under the following conditions:
Carrier liquid: n-hexane+lecithin
Dispersion condition: ultrasonic wave for 5 minutes
Flow rate of first carrier liquid: 500.00 μL/second
Flow rate of second carrier liquid: 500.00 μL/second
Flow rate of sample dispersion liquid: 0.42 μL/second
Observation magnification: 10 times
Light control filter: None
Number of particles observed: 6,992 (anhydrous crystal) or 9,628 (monohydrous crystal)

| SMILES | Particle shape [1] | Specific surface area [2] | Angle of repose [3] | Solubility [4] | Bulk density [5] | Tapped density [5] | Long diameter (d50) [6] | Short diameter (d50) [6] | Aspect ratio (d50) [6] | solubility at 1 h ([4]; water, thermodynamic from solid) |
| --- | --- | --- | --- | --- | --- | --- | --- | --- | --- | --- |
| CCS(=O)(=O)Nc1ncc(C(F)(F)F)cc1NC(=O)C1CCCCC1.[Na] [Anhydrous crystal, monosodium N-(2-ethylsulfonylamino-5-trifluoromethyl-3-pyridyl)cyclohexane carboxamide] | massive | 3.38 m^2/g | smaller than the angle of repose of the particle of the monohydrous crystal | 204 µg/mL | 0.289 g/mL | 0.367 g/mL | 6.09 μm | 3.34 μm | 1.82 |  |
| CCS(=O)(=O)Nc1ncc(C(F)(F)F)cc1NC(=O)C1CCCCC1.[Na] [Monohydrous crystal, monosodium N-(2-ethylsulfonylamino-5-trifluoromethyl-3-pyridyl)cyclohexane carboxamide] | needle like | 4.36 m^2/g |  |  | 0.18 g/mL | 0.207 g/mL | 15.80 μm | 3.19 μm | 4.95 | 160 µg/mL |

Source: US12473259B2, “Anhydrous crystal of monosodium n-(2-ethylsulfonylamino-5-trifluoromethyl-3-pyridyl)cyclohexane carboxamide” (ISHIHARA SANGYO KAISHA, LTD., priority 2019, dated 2025)
